Where two headings read alike, the source gives them in different places.
Assays:
[1] = biological target: T1, recombinant human Cdc25B (Homo sapiens, UniProt P30305); test: Cdc25B fluorometric phosphatase assay (OMFP substrate); assay type: biochemical
T1 construct: purchased CycLex CY-1353
T1 sequence (P30305 1-580): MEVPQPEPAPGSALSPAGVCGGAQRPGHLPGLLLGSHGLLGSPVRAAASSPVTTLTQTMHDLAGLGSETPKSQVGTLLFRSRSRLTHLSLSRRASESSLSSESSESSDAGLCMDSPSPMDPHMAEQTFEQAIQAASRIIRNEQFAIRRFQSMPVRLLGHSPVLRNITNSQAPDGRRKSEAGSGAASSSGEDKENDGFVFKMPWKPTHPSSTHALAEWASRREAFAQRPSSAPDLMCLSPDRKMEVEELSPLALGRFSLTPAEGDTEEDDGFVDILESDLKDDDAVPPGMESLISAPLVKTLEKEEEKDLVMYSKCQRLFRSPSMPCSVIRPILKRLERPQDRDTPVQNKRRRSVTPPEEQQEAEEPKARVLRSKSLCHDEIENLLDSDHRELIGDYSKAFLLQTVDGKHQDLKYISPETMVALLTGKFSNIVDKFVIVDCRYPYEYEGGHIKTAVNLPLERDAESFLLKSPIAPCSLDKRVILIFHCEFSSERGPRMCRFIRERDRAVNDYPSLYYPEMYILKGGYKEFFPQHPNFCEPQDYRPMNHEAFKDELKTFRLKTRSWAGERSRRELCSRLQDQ
Description: Then, 25 μL of stop solution was added. Fluorescence was measured at an excitation wavelength of 485 nm and an emission wavelength of 530 nm using a fluorescence microplate reader (BioTek Instruments, Inc., Winooski, VT, USA). Menadione is a quinone-type inhibitor of Cdc25s that was used as a positive control here.

[2] = biological target: T2, recombinant human Cdc25A (Homo sapiens, UniProt P30304); test: Cdc25A fluorometric phosphatase assay (OMFP substrate); assay type: biochemical
T2 construct: purchased CycLex CY-1352
T2 sequence (P30304 1-524): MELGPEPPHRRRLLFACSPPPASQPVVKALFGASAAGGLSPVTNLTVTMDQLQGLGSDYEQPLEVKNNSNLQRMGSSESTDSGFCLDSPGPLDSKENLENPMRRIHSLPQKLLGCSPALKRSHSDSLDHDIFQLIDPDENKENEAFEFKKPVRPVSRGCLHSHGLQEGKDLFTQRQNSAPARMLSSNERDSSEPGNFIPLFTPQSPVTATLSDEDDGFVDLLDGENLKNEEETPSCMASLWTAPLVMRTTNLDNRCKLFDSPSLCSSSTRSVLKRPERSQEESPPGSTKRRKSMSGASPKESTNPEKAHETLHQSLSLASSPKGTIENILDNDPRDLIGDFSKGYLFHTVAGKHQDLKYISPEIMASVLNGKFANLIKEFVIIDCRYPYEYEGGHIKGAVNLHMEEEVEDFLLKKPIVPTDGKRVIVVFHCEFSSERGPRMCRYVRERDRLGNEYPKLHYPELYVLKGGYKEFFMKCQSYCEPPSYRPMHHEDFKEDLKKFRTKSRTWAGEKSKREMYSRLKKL
Description: (§1) In summary, dual-specificity phosphatase activity was measured in a 96-well microtiter plate using O-methylfluorescein phosphate (OMFP) as a substrate. 5 μL (0.1 μg/μL) of purified recombinant Cdc25s (Cdc25A, -B and -C) was mixed with 40 μL of assay mixture and incubated with 5 μL of the test compound at various concentrations in a well. Then, 25 μL of stop solution was added. […] Menadione is a quinone-type inhibitor of Cdc25s that was used as a positive control here.

[3] = biological target: T3, recombinant human Cdc25C (Homo sapiens, UniProt P30307); test: Cdc25C fluorometric phosphatase assay (OMFP substrate); assay type: biochemical
T3 construct: purchased CycLex CY-1354
T3 sequence (P30307 1-473): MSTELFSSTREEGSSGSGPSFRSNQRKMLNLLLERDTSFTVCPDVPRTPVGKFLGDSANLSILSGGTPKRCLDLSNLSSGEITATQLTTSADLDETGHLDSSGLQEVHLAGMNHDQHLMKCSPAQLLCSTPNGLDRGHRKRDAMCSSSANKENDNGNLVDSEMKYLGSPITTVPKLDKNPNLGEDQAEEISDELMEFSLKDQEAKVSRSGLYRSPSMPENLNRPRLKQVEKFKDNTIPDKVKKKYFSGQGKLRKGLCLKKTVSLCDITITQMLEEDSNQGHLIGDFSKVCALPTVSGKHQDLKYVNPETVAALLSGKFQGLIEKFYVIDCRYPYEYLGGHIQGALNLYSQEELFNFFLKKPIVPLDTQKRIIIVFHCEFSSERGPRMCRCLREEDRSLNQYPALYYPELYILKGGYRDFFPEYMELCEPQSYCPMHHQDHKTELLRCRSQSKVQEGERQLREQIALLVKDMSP
Description: as §1

[4] = system: tsFT210 cells; test: MTT anti-proliferation assay, tsFT210; conditions: Mus musculus, tsFT210, 48 h, read-out: IC50 tsFT210
[5] = system: K562 cells; test: MTT anti-proliferation assay, K562; conditions: Homo sapiens, K562, 48 h, read-out: IC50 K562
[6] = system: MCF-7 cells; test: MTT anti-proliferation assay, MCF-7; conditions: Homo sapiens, MCF7, 48 h, read-out: IC50 MCF-7
[7] = system: tsFT210 cells; test: Cell cycle analysis by flow cytometry; assay type: cell-based, mouse; conditions: synchronized tsFT210 cells released at 32 °C, treated for 6 h
Description: Cell cycle analysis was performed as described previously. […]. The harvested cells were stained with staining buffer (50 μg/ml propidium iodide, 0.1% sodium citrate and 0.2% NP-40) and analysed by Flow Cytometry (BD Biosciences). A final concentration of 0.5% DMSO was used for all compounds and as a negative control. Nocodazole, a potent mitotic blocker that arrests cells at the G2/M phase, was used as a positive control at a concentration of 100 nM.

[8] = system: phosphorylated CDK1 in primary tumour tissues; test: Phosphorylated CDK1 in tumour tissue of K562-bearing mice; assay type: in vivo, mouse; conditions: especially the 5 and 10 mg/kg groups, vs control group
Description: (§2) The phosphorylation status of CDK1 was analysed by Western blotting as described in our previous work. […] The protein concentration in cell lysates was confirmed by the Bradford method. Fifty micrograms of protein per lane was resolved on 10% SDS polyacrylamide gels, and the bands were transferred to PVDF membranes (Millipore). Nonspecific reactivity was blocked by 5% non-fat milk prepared in TBST (10 mM Tris, 150 mM NaCl, 0.05% Tween-20, pH 7.5) at room temperature for 1 h. The protein signals were captured with primary antibodies and the secondary antibodies according to the manufacturers’ instructions. In this process, the protein β-actin was used to normalize target protein. All antibodies used in this paper were purchased from Cell Signaling Technology (Inc, China).
(§3) The mouse model was constructed according to our previous work. Balb/c mice (female, 5 weeks old), purchased from Shanghai SLAC Laboratory Animal Co., LTD (Shanghai, China), were subcutaneously injected into a 100 μL K562 cell suspension (5 × 10^6/mL, PBS) in the right flank of mice. […] The long and short dimensions of tumour size were measured by a digital calliper at days 1, 4, 8, 11, 16, 21, and 24 after treatment. The volume was calculated with the formula (long dimension) × (short dimension)^2/2. The mice were euthanized 2 days after the last treatment by the method of cervical dislocation.

[9] = system: CDK1 (tyrosine 15 phosphorylation) in tsFT210 cells; test: Western blot of CDK1 phosphorylation status in cells; assay type: cell-based, mouse; conditions: cells in G2/M phase, 1 μM, 5 μM and 25 μM, 4 h
Description: as §2

[10] = system: HeLa cells; test: MTT anti-proliferation assay, HeLa; conditions: Homo sapiens, 48 h, read-out: IC50 HeLa
[11] = system: tsFT210 cells; test: Intracellular ROS assay (DCFH-DA) in tsFT210 cells; assay type: cell-based, mouse; conditions: tsFT210 cells synchronized at G2 phase, 5 μM and 25 μM, 4 h, compared with control cells
Description: (§4) Reactive oxygen species (ROS) were detected with the fluorescent probe 2′,7′-dichlorofluorescin diacetate (DCFH-DA) as described by others. Briefly, MCF-7 cells or tsFT210 (synchronized at G2 phase) cells were plated in 96-well plates and loaded with 20 μM DCFH-DA for 30 min at 37 °C in culture medium. […] Untreated cells were used as control. Fluorescence was measured using a fluorescence microplate reader (BioTek Instruments, excitation wavelength: 485 nm, emission wavelength: 528 nm). The ROS levels were expressed as RFU (relative fluorescence unit).

[12] = system: MCF-7 cells; test: Intracellular ROS assay (DCFH-DA) in MCF-7 cells; assay type: cell-based; conditions: 5 μM and 25 μM, 4 h, compared with control cells
Description: as §4

[13] = system: K562 xenograft tumour; test: K562 xenograph tumour model in mice; assay type: in vivo, mouse
Description: as §3

[14] = recombinant human phosphatase, OMFP substrate, mean ± S.E.M., read-out: IC50 Cdc25B
[15] = recombinant human phosphatase, OMFP substrate, mean ± S.E.M., read-out: IC50 Cdc25A
[16] = recombinant human phosphatase, OMFP substrate, mean ± S.E.M., read-out: IC50 Cdc25C

Structure (SMILES) | IC50 [2, 15] | IC50 [1] | IC50 [2] | IC50 [3] | IC50 [3, 16] | other results
CC(C)=CCC(OC(=O)C=C(C)C)C1=CC(=O)c2c(O)ccc(O)c2C1=O (stereo not drawn) [β,β-Dimethylacrylshikonin] | 4.67 ± 0.85 µM | – | – | – | – | IC50 [1, 14]: 8.56 ± 0.67 µM
CC(=O)O[C@H](CC=C(C)C)C1=CC(=O)c2c(O)ccc(O)c2C1=O [Acetylshikonin] | – | 3.87 ± 0.68 µM | 3.92 ± 0.66 µM | 4.67 ± 0.34 µM | – | –
CC(C)=CCCC1=CC(=O)c2c(O)ccc(O)c2C1=O [Deoxyshikonin] | – | 7.32 ± 0.45 µM | 3.22 ± 0.76 µM | 6.33 ± 0.65 µM | – | –
CC(C)=CCC(OC(=O)CC(C)C)C1=CC(=O)c2c(O)ccc(O)c2C1=O (centres unmarked) [Isovalerylshikonin] | 9.53 ± 0.78 µM | – | – | – | 11 ± 0.97 µM | –
CCC(C)C(=O)O[C@H](CC=C(C)C)C1=CC(=O)c2c(O)ccc(O)c2C1=O (stereo partly drawn) [α-Methyl-η-butylshikonin] | 11.2 ± 1.45 µM | – | – | – | 13.5 ± 1.45 µM | IC50 [1, 14]: 14.3 ± 1.27 µM
CC(C)=CC[C@@H](OC(=O)C(C)C)C1=CC(=O)c2c(O)ccc(O)c2C1=O [Isobutylshikonin] | 6.79 ± 1.02 µM | – | – | – | 5.89 ± 0.43 µM | –
CC1=CC(=O)c2ccccc2C1=O [menadione, reference compound] | – | 5.37 ± 0.45 µM | 4.12 ± 0.87 µM | 5.13 ± 0.24 µM | – | –
CC(C)=CC[C@@H](O)C1=CC(=O)c2c(O)ccc(O)c2C1=O [Shikonin] | – | – | 2.14 ± 0.21 µM | 4.78 ± 0.18 µM | – | IC50 [4]: 8.97 ± 0.87 µM; IC50 [5]: 6.15 ± 0.46 µM; IC50 [6]: 6.82 ± 0.76 µM; Effect on cell cycle progression [7]: blocked at the G2/M phase in a concentration-dependent manner; Protein levels of phosphorylated CDK1 in primary tumour tissues [8]: significantly increased; Phosphorylation status of CDK1 (Western blot) [9]: induced an accumulation of the tyrosine 15-phosphorylated form of CDK1; IC50 [10]: 9.56 ± 1.03 µM; Intracellular ROS [11]: increased significantly; Intracellular ROS [12]: increased significantly; Tumour growth ([13]; K562-bearing mice, 1, 5, or 10 mg/kg every other day, 21 days, vs vehicle): concentration-dependently inhibited tumour growth; Survival (Kaplan-Meier) ([13]; K562-bearing mice, 1, 5, or 10 mg/kg, vs control group): prolonged
COc1cccc2c1C(=O)c1c(O)c3c(c(O)c1C2=O)C[C@@](O)(C(=O)CO)C[C@@H]3O[C@H]1C[C@H](N)[C@H](O)[C@H](C)O1 [Doxorubicin, reference compound] | – | – | – | – | – | IC50 [4]: 0.56 ± 0.14 µM; IC50 [6]: 0.28 ± 0.03 µM; IC50 [10]: 0.43 ± 0.06 µM
COC(=O)Nc1nc2ccc(C(=O)c3cccs3)cc2[nH]1 [Nocodazole, reference compound] | – | – | – | – | – | Effect on cell cycle progression [7]: arrested the cells at the G2/M phase

Reference: paper PMC6323793 (BMC Cancer, 2019)
